{"source": "the supplement of paper PMC10307832"}
{"compound": "CC1=C(N=C(N=C1N)[C@H](CC(=O)N)NC[C@@H](C(=O)N)N)C(=O)N[C@@H]([C@H](C2=CN=CN2)OC3C(C(C(C(O3)CO)O)O)OC4C(C(C(C(O4)CO)O)OC(=O)N)O)C(=O)N[C@H](C)[C@H]([C@H](C)C(=O)N[C@@H]([C@@H](C)O)C(=O)NCCC5=NC(=CS5)C6=NC(=CS6)C(=O)NCCC[S+](C)C)O [Bleomycin]", "assay": "relative viability (nuclei count vs DMSO), 5 days (fraction); higher = more cells survive", "settings": "0.03162 µM; main component drawn", "summary_of_the_method": "(§1)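 Viability was defined as treated-well nuclei divided by vehicle-well nuclei, with the median taken over replicate plates. Cells from lung cancer lines sat overnight at 37 °C in 1536-well plates, received five √10-spaced library-drug doses by pinning on vehicle-anchored plates, and grew 5 days without medium change before one-step fixation, permeabilisation and Hoechst staining, 4× imaging and MetaXpress nuclear counts. Only plates with control CV under 25% and at least one doubling were kept.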"}
{"cell line": "NCI-H441", "relative viability": 0.922}
{"compound": "CC1=C(N=C(N=C1N)[C@H](CC(=O)N)NC[C@@H](C(=O)N)N)C(=O)N[C@@H]([C@H](C2=CN=CN2)OC3C(C(C(C(O3)CO)O)O)OC4C(C(C(C(O4)CO)O)OC(=O)N)O)C(=O)N[C@H](C)[C@H]([C@H](C)C(=O)N[C@@H]([C@@H](C)O)C(=O)NCCC5=NC(=CS5)C6=NC(=CS6)C(=O)NCCC[S+](C)C)O [Bleomycin]", "assay": "relative viability (nuclei count vs DMSO), 5 days (fraction); higher = more cells survive", "settings": "0.1 µM; main component drawn", "summary_of_the_method": "as §1"}
{"cell line": "NCI-H522", "relative viability": 0.666}
{"cell line": "NCI-H1623", "relative viability": 0.807}
{"cell line": "NCI-H838", "relative viability": 0.301}
{"cell line": "NCI-H1650", "relative viability": 0.243}
{"cell line": "EBC-1", "relative viability": 0.905}
{"cell line": "NCI-H1703", "relative viability": 0.826}
{"cell line": "NCI-H1993", "relative viability": 0.876}
{"cell line": "NCI-H2087", "relative viability": 0.851}
{"cell line": "PC-14", "relative viability": 0.286}
{"cell line": "LCLC-103H", "relative viability": 0.982}
{"cell line": "NCI-H596", "relative viability": 0.637}
{"cell line": "NCI-H2228", "relative viability": 0.899}
{"cell line": "EMC-BAC-2", "relative viability": 0.747}
{"cell line": "NCI-H2342", "relative viability": 0.968}
{"cell line": "ChaGo-K-1", "relative viability": 0.846}
{"cell line": "SW 900", "relative viability": 0.6}
{"cell line": "NCI-H1648", "relative viability": 0.773}
{"cell line": "NCI-H441", "relative viability": 0.862}
{"compound": "CC1=C(N=C(N=C1N)[C@H](CC(=O)N)NC[C@@H](C(=O)N)N)C(=O)N[C@@H]([C@H](C2=CN=CN2)OC3C(C(C(C(O3)CO)O)O)OC4C(C(C(C(O4)CO)O)OC(=O)N)O)C(=O)N[C@H](C)[C@H]([C@H](C)C(=O)N[C@@H]([C@@H](C)O)C(=O)NCCC5=NC(=CS5)C6=NC(=CS6)C(=O)NCCC[S+](C)C)O [Bleomycin]", "assay": "relative viability (nuclei count vs DMSO), 5 days (fraction); higher = more cells survive", "settings": "0.3162 µM; main component drawn", "summary_of_the_method": "as §1"}
{"cell line": "NCI-H522", "relative viability": 0.432}
{"cell line": "NCI-H1623", "relative viability": 0.466}
{"cell line": "NCI-H838", "relative viability": 0.229}
{"cell line": "NCI-H1650", "relative viability": 0.179}
{"cell line": "EBC-1", "relative viability": 0.836}
{"cell line": "NCI-H1703", "relative viability": 0.381}
{"cell line": "NCI-H1993", "relative viability": 0.601}
{"cell line": "NCI-H2087", "relative viability": 0.257}
{"cell line": "PC-14", "relative viability": 0.097}
{"cell line": "LCLC-103H", "relative viability": 0.569}
{"cell line": "NCI-H596", "relative viability": 0.377}
{"cell line": "NCI-H2228", "relative viability": 0.559}
{"cell line": "EMC-BAC-2", "relative viability": 0.418}
{"cell line": "NCI-H2342", "relative viability": 0.759}
{"cell line": "ChaGo-K-1", "relative viability": 0.58}
{"cell line": "SW 900", "relative viability": 0.21}
{"cell line": "NCI-H1648", "relative viability": 0.608}
{"cell line": "NCI-H441", "relative viability": 0.651}
{"compound": "CC1=C(N=C(N=C1N)[C@H](CC(=O)N)NC[C@@H](C(=O)N)N)C(=O)N[C@@H]([C@H](C2=CN=CN2)OC3C(C(C(C(O3)CO)O)O)OC4C(C(C(C(O4)CO)O)OC(=O)N)O)C(=O)N[C@H](C)[C@H]([C@H](C)C(=O)N[C@@H]([C@@H](C)O)C(=O)NCCC5=NC(=CS5)C6=NC(=CS6)C(=O)NCCC[S+](C)C)O [Bleomycin]", "assay": "relative viability (nuclei count vs DMSO), 5 days (fraction); higher = more cells survive", "settings": "1 µM; main component drawn", "summary_of_the_method": "as §1"}
{"cell line": "NCI-H522", "relative viability": 0.345}
{"cell line": "NCI-H1623", "relative viability": 0.469}
{"cell line": "NCI-H838", "relative viability": 0.213}
{"cell line": "NCI-H1650", "relative viability": 0.195}
{"cell line": "EBC-1", "relative viability": 0.602}
{"cell line": "NCI-H1703", "relative viability": 0.272}
{"cell line": "NCI-H1993", "relative viability": 0.564}
{"cell line": "NCI-H2087", "relative viability": 0.235}
{"cell line": "PC-14", "relative viability": 0.057}
{"cell line": "LCLC-103H", "relative viability": 0.382}
{"cell line": "NCI-H596", "relative viability": 0.412}
{"cell line": "NCI-H2228", "relative viability": 0.311}
{"cell line": "EMC-BAC-2", "relative viability": 0.302}
{"cell line": "NCI-H2342", "relative viability": 0.653}
{"cell line": "ChaGo-K-1", "relative viability": 0.387}
{"cell line": "SW 900", "relative viability": 0.205}
{"cell line": "NCI-H1648", "relative viability": 0.68}
{"cell line": "NCI-H441", "relative viability": 0.42}
{"compound": "COc1cc([C@@H]2c3cc4c(cc3[C@@H](O[C@@H]3O[C@@H]5CO[C@@H](C)O[C@H]5[C@H](O)[C@H]3O)[C@H]3COC(=O)[C@H]23)OCO4)cc(OC)c1O [Etoposide]", "assay": "relative viability (nuclei count vs DMSO), 5 days (fraction); higher = more cells survive", "settings": "0.01 µM", "summary_of_the_method": "as §1"}
{"cell line": "NCI-H522", "relative viability": 0.977}
{"cell line": "NCI-H1623", "relative viability": 0.859}
{"cell line": "NCI-H838", "relative viability": 0.963}
{"cell line": "NCI-H1650", "relative viability": 0.897}
{"cell line": "EBC-1", "relative viability": 0.977}
{"cell line": "NCI-H1703", "relative viability": 0.761}
{"cell line": "NCI-H1993", "relative viability": 0.727}
{"cell line": "NCI-H2087", "relative viability": 0.967}
{"cell line": "PC-14", "relative viability": 0.996}
{"cell line": "LCLC-103H", "relative viability": 0.976}
{"cell line": "NCI-H596", "relative viability": 0.866}
{"cell line": "NCI-H2228", "relative viability": 0.926}
{"cell line": "EMC-BAC-2", "relative viability": 0.964}
{"cell line": "NCI-H2342", "relative viability": 1.04}
{"cell line": "ChaGo-K-1", "relative viability": 1.04}
{"cell line": "SW 900", "relative viability": 0.778}
{"cell line": "NCI-H441", "relative viability": 0.923}
